Earlier results on 6 compounds are cited in patent US20070173447A1, “METHOD FOR TREATING OSTEOPOROSIS BY INTRANASAL DELIVERY OF TERIPARATIDE WITH AN ANTI-RESORPTIVE AGENT” (Nastech Pharmaceutical Company Inc., priority 2005, published 2007).

Where two headings read alike, the source gives them in different places. Ends that are not written are not given here.

Series [1] concerns ciliary motility.
The conditions of series [2]: anesthetized rats.
For series [3] the following is noted: intranasal, up to 500 μg per day for 7 days and up to 1,000 μg per day for 3 months.
The conditions of series [4]: after feeding to rats.
In series [5] the test system is ovariectomized rat model.
For series [6] the following is noted: rats, intraduodenal, with 1% (w/v) saline dispersion of polycarbophil.

Consider “2-alkyl-4-hydroxyquinolines [pyo compound]”, for which the “concentration producing ciliostasis / inhibiting ciliary motility” value in series [1] was 50 µg/mL.
As for human growth hormone, the nasal bioavailability in series [2] (with N-acetyl-L-cysteine) is reported as 12.2%; in series [2] (without N-acetyl-L-cysteine), 7.5%.
On to `CC[C@H](C)[C@H](NC(=O)[C@H](CCC(=O)O)NC(=O)[C@H](CO)NC(=O)[C@@H](NC(=O)[C@@H](N)CO)C(C)C)C(=O)N[C@@H](CCC(N)=O)C(=O)N[C@@H](CC(C)C)C(=O)N[C@@H](CCSC)C(=O)N[C@@H](Cc1cnc[nH]1)C(=O)N[C@@H](CC(N)=O)C(=O)N[C@@H](CC(C)C)C(=O)NCC(=O)N[C@@H](CCCCN)C(=O)N[C@@H](Cc1cnc[nH]1)C(=O)N[C@@H](CC(C)C)C(=O)N[C@@H](CC(N)=O)C(=O)N[C@@H](CO)C(=O)N[C@@H](CCSC)C(=O)N[C@@H](CCC(=O)O)C(=O)N[C@@H](CCCN=C(N)N)C(=O)N[C@H](C(=O)N[C@@H](CCC(=O)O)C(=O)N[C@@H](Cc1c[nH]c2ccccc12)C(=O)N[C@@H](CC(C)C)C(=O)N[C@@H](CCCN=C(N)N)C(=O)N[C@@H](CCCCN)C(=O)N[C@@H](CCCCN)C(=O)N[C@@H](CC(C)C)C(=O)N[C@@H](CCC(N)=O)C(=O)N[C@@H](CC(=O)O)C(=O)N[C@H](C(=O)N[C@@H](Cc1cnc[nH]1)C(=O)N[C@@H](CC(N)=O)C(=O)N[C@@H](Cc1ccccc1)C(=O)O)C(C)C)C(C)C` [Teriparatide, teriparatide], for which the safety concerns result in series [3] is given as “No safety concerns were noted”.
For Phaseolus vulgaris hemagglutinin, in series [4], the oral bioavailability result was “more than 10%”.
For “hPTH1-31NH2 (SVSEIQLMHNLGKHLNSMERVEWLRKKLQDV-NH2; listed as Homo sapiens)”, the “restoration of bone loss” value in series [5] is on record as “fully active”.
“9-desglycinamide, 8-arginine vasopressin [DGAVP]”: the “bioavailability increase compared to aqueous solution without polymer” value in series [6] is recorded as 3-5 fold.
